One may read the MIC as the least concentration at which growth counts as inhibited. The low end stands for a more susceptible organism, the high end for a less susceptible organism.

We go through 4 compounds from patent publication US4062944A, “Mixture of antibiotics produced by new species of micromonospora” (Pfizer Inc., priority 1976, dated 1977).

≈ marks a conversion by molar mass, not a printed value. Read-outs that look alike come from different tables or passages of the source.

Assay [1] is described as follows: Antibiotic properties of hexahydro derivatives compared with parent compounds. Particulars: compared with the parent compound.
The next assay concerns M. tuber. H37Rv. Nature of the assay: Minimal inhibitory concentration, nutrient broth tube dilution, M. tuberculosis. Particulars: Mycobacterium tuberculosis. Type of assay: cell-based. The procedure:
(§1) These tests were run by preparing tubes of nutrient broth with gradually increasing concentrations of the pure antibiotic and then seeding the broths with the particular organism specified. […] The tests were conducted under standardized conditions as described in Proc. Soc. Exp. Biol. & Med. 122, ll07 (1966). Tables II and III illustrate the in vivo activity of these new antibiotics in experimentally infected mice.

Another assay has as its system Streptococcus pyogenes. Description: Minimal inhibitory concentration, nutrient broth tube dilution, Streptococcus pyogenes. Type of assay: cell-based. The procedure:
as §1

The subject of a further assay is Staphylococcus aureus. Description: Minimal inhibitory concentration, nutrient broth tube dilution, Staphylococcus aureus. It is filed as cell-based. The method, then: as §1
In assay [2] the test system is S. aureus (multi-resistant). Nature of the assay: Minimal inhibitory concentration, nutrient broth tube dilution, S. aureus (multi-resistant). Type of assay: cell-based. Conditions: Staphylococcus aureus. The method, then: as §1
A further assay relates to Diplococci. Description: In vivo activity in experimentally infected mice, Diplococci (PD50). Particulars: Mus musculus, oral, read-out: PD50 (dose that provides 50% protection). The method, then: as §1
(§2) *Dose that provides 50% protection?

Another assay relates to Streptococci. Description: In vivo activity in experimentally infected mice, Streptococci (PD50). Particulars: Mus musculus, oral, read-out: PD50 (dose that provides 50% protection). The procedure:
as §1, §2

A further assay has as its system Staphylococci. Description: In vivo activity in experimentally infected mice, Staphylococci (PD50). Conditions: Mus musculus, read-out: PD50 (dose that provides 50% protection). The method, then:
as §1, §2

A further assay concerns M. tuberculosis. Description: M. tuberculosis infection in mice, survival. Conditions: evaluated at 53 days post challenge; for Percent Survival: control 20; for Average Survival Time: control 37.7. It is filed as in vivo. The method, then: as §1
M. tuberculosis Infection in Mice
*Evaluated at 53 days post challenge

Regarding hexahydro-3-methylthiorifamycin S, the “antibiotic properties / antibiotic activity” value in assay [1] is given as “comparable to those of the parent compounds”.
Still for that read-out and setting: under “hexahydro derivative of 3-methylthiorifamycin SV” stands “comparable to those of the parent compounds”.
In the case of `COC1C=COC2(C)Oc3c(C)c(O)c4c(O)c(c(SC)c(O)c4c3C2=O)NC(=O)C(C)=CC=CC(C)C(O)C(C)C(O)C(C)C(OC(C)=O)C1C` (stereo not shown) [3-methylthiorifamycin SV], the MIC was 15 ng/mL (≈ 20.2 nM) in the assay with M. tuber. H37Rv, 1.9 ng/mL (≈ 2.55 nM) against Streptococcus pyogenes, 1.9 ng/mL (≈ 2.55 nM) in the assay with Staphylococcus aureus and 1.9 to 3.9 ng/mL (≈ 2.55 to 5.24 nM) in assay [2]. The ED50 amounted to 8 mg/kg in the assay with Diplococci; 0.22 mg/kg with Streptococci; 1.1 mg/kg in the assay on Staphylococci (oral); 0.65 mg/kg with Staphylococci (sc, subcutaneous). Further, the “Percent Survival” value is listed as 70% with M. tuberculosis (daily dose 0.5 mg) and 100% in the assay with M. tuberculosis (daily dose 5.0 mg). Besides, the “Average Survival Time” value in the assay on M. tuberculosis (daily dose 0.5 mg) worked out at 44.3 days; in the assay on M. tuberculosis (daily dose 5.0 mg) it was 53.0 days.
Turning to `COC1C=COC2(C)Oc3c(C)c(O)c4c(c3C2=O)C(=O)C(SC)=C(NC(=O)C(C)=CC=CC(C)C(O)C(C)C(O)C(C)C(OC(C)=O)C1C)C4=O` (stereo not shown) [3-methylthiorifamycin S], the MIC with M. tuber. H37Rv was 6 ng/mL (≈ 8.09 nM); against Streptococcus pyogenes it was 0.9 ng/mL (≈ 1.21 nM); against Staphylococcus aureus, 0.4 ng/mL (≈ 0.539 nM); in assay [2], 1.2 to 3.9 ng/mL (≈ 1.62 to 5.26 nM). Moreover, the ED50 in the assay on Diplococci was more than 12.5 mg/kg; in the assay on Streptococci, 0.6 mg/kg; in the assay on Staphylococci (oral), 1.4 mg/kg; in the assay on Staphylococci (sc, subcutaneous), 0.17 mg/kg.
